The record followed here is patent publication US11465998B2, “Therapeutic compounds and methods of use thereof” (Regents of the University of Minnesota, priority 2019, dated 2022).

Common to all, as to type: cell-based
Experiment [1] has as its system human peripheral blood mononuclear cells (PBMCs). As to the kind of experiment: Multiplexed immunoassays for human cytokines in PBMCs. Here is the method: (§1) Example 5: High-throughput screens in porcine blood: Curated compound collections were obtained from the Institute for Therapeutics Discovery & Development at the University of Minnesota. Compound transfers from source (80 nL of 10 mM stocks) to assay plates were performed using an Echo 550 acoustic liquid handler (Labcyte, Sunnyvale, Calif.). For most libraries, a target final concentration of 10 μM of compound (in a final volume of 80 μL for the assay described below) was achieved. Compound plates were hermetically sealed and stored at −80° C. until used. Fresh, heparin-anticoagulated porcine blood from healthy animals were obtained under USDA supervision from Midwest Research Swine, LLC (Glencoe, Minn.). 80 μL of hematocrit-enriched porcine blood (low-speed centrifugation, followed by resuspension in DMEM supplemented with 10% fetal bovine serum) was added to compound plates and incubated for 15 h. The following day, the plates were briefly centrifuged (100 g, 10 min), and supernatants were transferred using an automated ViaFlow 384 transfer device (Integra Biosciences Corp., Hudson, N.H.) to assay plates containing of 10^6 cells/mL of each of the following NF-κB/secreted alkaline phosphatase reporter cells suspended in HEK-Blue Detection Media: human IFN-α/β, human IFN-γ, human TNF-α/IL-1β (InvivoGen, San Diego, Calif.). NF-κB translocation was assayed spectrophotometrically using an alkaline phosphatase-specific chromogen (present in HEK-detection medium as supplied by InvivoGen) at 620 nm using a SpectraMax M4 multimode microplate reader (Molecular Devices, Sunnyvale, Calif.). Z′ factors were computed for each TLR/NOD-specific signals. Hits were defined as signals >4σ (in-plate standard deviations for test compounds above negative control means), were deconvoluted in full dose-response assays in human TLR-2/-3/-4/-5/-7/-8/-9 and NOD-1/NOD-2-specific reporter cells in liquid handler-assisted assay formats as described previously. Example 6: Murine knockout cell-lines: The following reagents were obtained through BEI Resources, NIAID, NIH: the microglial cell line derived from MAL/MyD88 double knockout Mice (NR-9904), and the macrophage cell line derived from TRIF/TRAM knockout mice (NR-9568). Example 7: Human NOD1/2-specific reporter gene assays (NF-κB induction), and TLR-2/-3/-4/-5/-7/-8/-9/STING/ISG counter-screens: The induction of NF-κB was quantified using human TLR-2/-3/-4/-5/-7/-8/-9/NOD-1/NOD-2/STING/ISG-specific, rapid-throughput, liquid handler-assisted reporter gene assays as previously described by us (Wu, W. et al. J. Med. Chem. 2010, 53, 3198-3213; Shukla, N. M. et al. J. Med. Chem. 2010, 53, 4450-4465; Agnihotri, G. et al. J. Med. Chem. 2011, 54, 1490-1510 and Ukani, R. et al. Bioorg. Med. Chem. Lett. 2012, 22, 293-295). […]

A further experiment deals with human whole blood. As to the kind of experiment: Cytokine/chemokine induction in human whole blood.
The target of a further experiment is T1, human NOD2 (Homo sapiens, UniProt Q9HC29).
T1 construct: host or cells: HEK293
T1 sequence (Q9HC29 whole entry): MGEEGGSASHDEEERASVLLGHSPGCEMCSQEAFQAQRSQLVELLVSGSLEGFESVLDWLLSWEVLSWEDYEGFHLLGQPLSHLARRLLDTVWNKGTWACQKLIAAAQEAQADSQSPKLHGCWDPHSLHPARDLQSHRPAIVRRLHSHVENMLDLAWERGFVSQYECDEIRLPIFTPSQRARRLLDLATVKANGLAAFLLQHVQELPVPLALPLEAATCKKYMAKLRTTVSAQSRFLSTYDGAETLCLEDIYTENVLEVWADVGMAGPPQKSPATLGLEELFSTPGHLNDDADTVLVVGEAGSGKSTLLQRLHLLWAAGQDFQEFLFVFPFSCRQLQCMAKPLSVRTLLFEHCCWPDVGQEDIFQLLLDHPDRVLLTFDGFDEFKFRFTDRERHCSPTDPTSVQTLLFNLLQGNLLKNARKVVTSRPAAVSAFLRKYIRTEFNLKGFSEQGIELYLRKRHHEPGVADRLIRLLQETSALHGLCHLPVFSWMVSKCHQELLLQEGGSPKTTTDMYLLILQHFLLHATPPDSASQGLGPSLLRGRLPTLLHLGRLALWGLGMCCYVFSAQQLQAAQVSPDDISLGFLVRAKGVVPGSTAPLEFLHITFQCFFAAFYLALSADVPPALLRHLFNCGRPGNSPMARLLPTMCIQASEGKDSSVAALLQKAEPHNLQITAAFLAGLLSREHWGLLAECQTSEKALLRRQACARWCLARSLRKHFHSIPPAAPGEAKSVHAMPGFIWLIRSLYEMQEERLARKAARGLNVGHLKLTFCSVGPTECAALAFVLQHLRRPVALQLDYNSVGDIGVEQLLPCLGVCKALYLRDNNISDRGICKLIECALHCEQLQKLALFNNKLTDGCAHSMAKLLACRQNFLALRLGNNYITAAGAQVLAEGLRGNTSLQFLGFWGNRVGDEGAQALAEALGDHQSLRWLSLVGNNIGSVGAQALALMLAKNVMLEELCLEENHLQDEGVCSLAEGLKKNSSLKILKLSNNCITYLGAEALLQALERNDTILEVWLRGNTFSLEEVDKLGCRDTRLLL
The experiment can be described thus: human NOD2 specific reporter gene assay (NF-κB induction). The settings on record: for hNOD2-agonistic activity (in words): human NOD2 reporter gene assay; for EC50: human NOD2 specific reporter gene assay, arithmetic mean of quadruplicate samples, NA* indicates inactive under the tested conditions, read-out: hNOD2 Agonistic Activity (μM), EC50. Here is the method:
as §1, with “293-295). HEK293 cells stably co-transfected with the appropriate hTLR and secreted alkaline phosphatase (sAP) were maintained in HEK-Blue™ Selection medium. Stable expression of secreted alkaline phosphatase (sAP) under control of NF-κB/AP-1/IRF promoters is inducible by appropriate innate immune stimuli, and extracellular sAP in the supernatant is proportional to NF-κB/IRF induction. Reporter cells were incubated at a density of ˜10^5 cells/ml in a volume of 80 μl/well, in 384-well, flat-bottomed, cell culture-treated microtiter plates in the presence of graded concentrations of stimuli. sAP was assayed spectrophotometrically using an alkaline phosphatase-specific chromogen (present in HEK-detection medium as supplied by InvivoGen) at 620 nm. Example 8: Multiplexed immunoassays for human cytokines: Fresh human peripheral blood mononuclear cells (hPBMC) were isolated from human blood obtained by venipuncture in Cell Preparation Tubes (CPT, Beckton-Dickinson) with informed consent and as per guidelines approved by the University of Minnesota Human Subjects Experimentation Committee. Aliquots of PBMCs or THP-1 cells (10^5 cells in 100 μL/well) were stimulated for 16 h with graded concentrations of test compounds.” for “293-295).”

The subject of experiment [2] is microglial cell line derived from MAL/MyD88 double knockout Mice (NR-9904). As to the kind of experiment: Cytokine/chemokine induction in MAL/MyD88 double-knockout cell line. The following applies: MAL/MyD88 double-knockout murine cell line. Here is the method:
(§2) Cytokine induction by 7e and 7f was examined in murine-derived cell lines. […] The absence of activity was not due to extensive plasma protein binding by re-examining under near-serum-free conditions.
(§3) Example 5: High-throughput screens in porcine blood: Curated compound collections were obtained from the Institute for Therapeutics Discovery & Development at the University of Minnesota. Compound transfers from source (80 nL of 10 mM stocks) to assay plates were performed using an Echo 550 acoustic liquid handler (Labcyte, Sunnyvale, Calif.). For most libraries, a target final concentration of 10 μM of compound (in a final volume of 80 μL for the assay described below) was achieved. Compound plates were hermetically sealed and stored at −80° C. until used. Fresh, heparin-anticoagulated porcine blood from healthy animals were obtained under USDA supervision from Midwest Research Swine, LLC (Glencoe, Minn.). 80 μL of hematocrit-enriched porcine blood (low-speed centrifugation, followed by resuspension in DMEM supplemented with 10% fetal bovine serum) was added to compound plates and incubated for 15 h. […] NF-κB translocation was assayed spectrophotometrically using an alkaline phosphatase-specific chromogen (present in HEK-detection medium as supplied by InvivoGen) at 620 nm using a SpectraMax M4 multimode microplate reader (Molecular Devices, Sunnyvale, Calif.). […] Example 7: Human NOD1/2-specific reporter gene assays (NF-κB induction), and TLR-2/-3/-4/-5/-7/-8/-9/STING/ISG counter-screens: The induction of NF-κB was quantified using human TLR-2/-3/-4/-5/-7/-8/-9/NOD-1/NOD-2/STING/ISG-specific, rapid-throughput, liquid handler-assisted reporter gene assays as previously described by us (Wu, W. et al. J. Med. Chem. 2010, 53, 3198-3213; Shukla, N. M. et al. J. Med. Chem. 2010, 53, 4450-4465; Agnihotri, G. et al. J. Med. Chem. 2011, 54, 1490-1510 and Ukani, R. et al. Bioorg. Med. Chem. Lett. 2012, 22, 293-295). […]

In experiment [3] the test system is macrophage cell line derived from TRIF/TRAM knockout mice (NR-9568). The experiment can be described thus: Cytokine/chemokine induction in TRIF/TRAM double-knockout cell line. The settings on record: TRIF/TRAM double-knockout murine cell line. Here is the method:
as §2, §3

Experiment [4] relates to RAW264.7 murine macrophages. The experiment can be described thus: Cytokine/chemokine induction in wild-type RAW264.7 murine macrophages (multiplexed immunoassay). The following applies: wild-type RAW264.7 murine macrophage cell line. Here is the method:
as §2, §3

SMILES strings stand for the structures. Entries after “also recorded” stand apart in the source; their conditions may differ.

The term EC50 denotes the concentration giving half of the maximal effect.

For `CCOC(=O)c1cc(-n2cnc3ccccc32)cs1` [Compound 1, Ethyl 4-(1H-benzo[d]imidazol-1-yl)thiophene-2-carboxylate], in experiment [1], the “induction of chemokines and cytokines” value is “None of the small molecules (including 1, as well as the optimized, equipotent analogues 7e and 7f) showed any activity”. Further, in the experiment on human whole blood, the “induction of cytokines and chemokines” value is “None of the small molecules (including 1, as well as the optimized, equipotent analogues 7e and 7f) showed any activity”.
`CCCCCc1nc2ccccc2n1-c1csc(C(=O)NO)c1` [Compound 11b, N-Hydroxy-4-(2-pentyl-1H-benzo[d]imidazol-1-yl)thiophene-2-carboxamide]: on human NOD2, the “hNOD2-agonistic activity (in words)” value is given as “weak activity” and the EC50 came to 1.84 µM.
For `CCCCCc1nc2ccccc2n1-c1csc(C(=O)NC)c1` [Compound 11c, N-Methyl-4-(2-pentyl-1H-benzo[d]imidazol-1-yl)thiophene-2-carboxamide], in that order: “weak activity” and 7.02 µM.
On to `CCCCCc1nc2ccccc2n1-c1csc(C(=N)N)c1` [Compound 13b, 4-(2-Pentyl-1H-benzo[d]imidazol-1-yl)thiophene-2-carboximidamide], for which, on human NOD2, the “hNOD2-agonistic activity (in words)” value is “weak activity” and the concentration giving a half-maximal response (EC50) stood at 6.57 µM.
`CCCCCc1nc2ccccc2n1-c1csc(C(N)=O)n1` [Compound 14, 4-(2-Pentyl-1H-benzo[d]imidazol-1-yl)thiazole-2-carboxamide]: on human NOD2, the “hNOD2-agonistic activity (in words)” value is reported as “weakly active” and the EC50 was determined as 7.39 µM.
In the case of `NC(=O)c1cc(-n2cnc3cnccc32)cs1` [Compound 18a, 4-(1H-Imidazo[4,5-c]pyridin-1-yl)thiophene-2-carboxamide], the “hNOD2-agonistic activity (in words)” value on human NOD2 is “inactive”.
Regarding `CCCCc1nc2cnccc2n1-c1csc(C(N)=O)c1` [Compound 18b, 4-(2-Butyl-1H-imidazo[4,5-c]pyridin-1-yl)thiophene-2-carboxamide], at human NOD2, the “hNOD2-agonistic activity (in words)” value is listed as “weakly active” and the EC50 turned out to be 5.65 µM.
Turning to `NC(=O)c1cc(-n2cnc3c(N)nccc32)cs1` [Compound 19a, 4-(4-Amino-1H-imidazo[4,5-c]pyridin-1-yl)thiophene-2-carboxamide], on human NOD2, the “hNOD2-agonistic activity (in words)” value is “inactive”.
Turning to `CCCCc1nc2c(N)nccc2n1-c1csc(C(N)=O)c1` [Compound 19b, 4-(4-Amino-2-butyl-1H-imidazo[4,5-c]pyridin-1-yl)thiophene-2-carboxamide], on human NOD2, the “hNOD2-agonistic activity (in words)” value is “weakly active” and the EC50 came to 4.08 µM.
Consider `CCCCOC(=O)[C@@H](CCC(N)=O)NC(=O)[C@H](C)NC(=O)[C@@H](C)O[C@H]1[C@H](O)[C@@H](CO)OC(O)[C@@H]1NC(C)=O` (stereo partly drawn) [murabutide, N-Acetyl-muramyl-LAlanyl-D-Glutamin-n-butyl-ester, reference compound], for which the “induction of chemokines and cytokines” value in experiment [1] is “induced significant levels of cytokines and chemokines”. The “cytokine and chemokine induction” value in experiment [2] and in experiment [3] was “abrogation of responsiveness” each time. Further, the “induction of chemokines and proinflammatory cytokines” value in experiment [4] was “potently immunostimulatory; also recorded: induction of chemokines and cytokines”. Besides, the “induction of cytokines and chemokines” value in the experiment on human whole blood is “induced significant levels of cytokines and chemokines”.
